Results published in ChEMBL document CHEMBL4196011, “The lead optimization of the polyamine conjugate of flavonoid with a naphthalene motif: Synthesis and biological evaluation” (Eur J Med Chem, 2018).
Active and inactive are the calls of the source. The calls are words filed in the database; no cut-off is given here.

How the values were obtained:
Mus musculus [1] = experiment: Toxicity in Kunming mouse xenografted with […] H22 cells assessed as effect on spleen weight index at 30 mg/kg, iv administered for 7 consecutive days; type: organism-based; details: in vivo
HepG2 [2] = experiment: Cytotoxicity in human HepG2 cells assessed as gain in lysosomal mass/pH after 48 hrs by LysoTracker Red dye-based fluorescence assay; type: functional, cell-based
HCT-116 = experiment: Antiproliferative activity against human HCT116 cells after 48 hrs by MTT assay; type: functional, cell-based; details: HCT-116, 48 h
HT-29 = experiment: Antiproliferative activity against human HT-29 cells after 48 hrs by MTT assay; type: functional, cell-based; details: HT-29, 48 h
HeLa = experiment: Antiproliferative activity against human HeLa cells after 48 hrs by MTT assay; type: functional, cell-based
H22 = experiment: Antitumor activity against […] xenografted in Kunming mouse assessed as tumor growth inhibition at 30 mg/kg, iv for 7 consecutive days measured on day 16; type: functional; details: 384 h, read-out: TGI
[3] = Toxicity in iv dosed Kunming mouse assessed as maximum tolerated dose administered for 7 consecutive days; type: organism-based; details: in vivo
Mus musculus [4] = experiment: Toxicity in Kunming mouse xenografted with […] H22 cells assessed as effect on lung weight index at 30 mg/kg, iv administered for 7 consecutive days; type: organism-based; details: in vivo
Mus musculus [5] = experiment: Toxicity in Kunming mouse xenografted with […] H22 cells assessed as effect on kidney weight index at 30 mg/kg, iv administered for 7 consecutive days; type: organism-based; details: in vivo
HepG2 [6] = experiment: Induction of apoptosis in human HepG2 cells assessed as early apoptotic cells at 2.5 uM after 8 hrs by Annexin V-FITC/propidium iodide staining-based flow cytometry (reference value: 1.29%); type: functional
HepG2 [7] = experiment: Induction of apoptosis in human HepG2 cells assessed as necrotic cells at 2.5 uM after 8 hrs by Annexin V-FITC/propidium iodide staining-based flow cytometry (reference value: 0.40%); type: functional
HepG2 [8] = experiment: Induction of apoptosis in human HepG2 cells assessed as late apoptotic cells at 7.5 uM after 8 hrs by Annexin V-FITC/propidium iodide staining-based flow cytometry (reference value: 0.88%); type: functional
HepG2 [9] = experiment: Induction of apoptosis in human HepG2 cells assessed as early apoptotic cells at 5 uM after 8 hrs by Annexin V-FITC/propidium iodide staining-based flow cytometry (reference value: 1.29%); type: functional
HepG2 [10] = experiment: Induction of apoptosis in human HepG2 cells assessed as late apoptotic cells at 2.5 uM after 24 hrs by Annexin V-FITC/propidium iodide staining-based flow cytometry (reference value: 0.88%); type: functional
HepG2 [11] = experiment: Induction of apoptosis in human HepG2 cells assessed as early apoptotic cells at 7.5 uM after 24 hrs by Annexin V-FITC/propidium iodide staining-based flow cytometry (reference value: 2.07%); type: functional
HepG2 [12] = experiment: Induction of apoptosis in human HepG2 cells assessed as viable cells at 7.5 uM after 24 hrs by Annexin V-FITC/propidium iodide staining-based flow cytometry (reference value: 96.97%); type: functional; details: HepG2, 24 h, read-out: Activity
HepG2 [13] = experiment: Induction of apoptosis in human HepG2 cells assessed as early apoptotic cells at 5 uM after 24 hrs by Annexin V-FITC/propidium iodide staining-based flow cytometry (reference value: 2.07%); type: functional
HepG2 [14] = experiment: Induction of apoptosis in human HepG2 cells assessed as viable cells at 5 uM after 24 hrs by Annexin V-FITC/propidium iodide staining-based flow cytometry (reference value: 96.97%); type: functional; details: HepG2, 24 h, read-out: Activity
HepG2 [15] = experiment: Induction of apoptosis in human HepG2 cells assessed as late apoptotic cells at 2.5 uM after 36 hrs by Annexin V-FITC/propidium iodide staining-based flow cytometry (reference value: 1.08%); type: functional
HepG2 [16] = experiment: Induction of apoptosis in human HepG2 cells assessed as necrotic cells at 7.5 uM after 36 hrs by Annexin V-FITC/propidium iodide staining-based flow cytometry (reference value: 0.24%); type: functional
HepG2 [17] = experiment: Induction of apoptosis in human HepG2 cells assessed as viable cells at 7.5 uM after 36 hrs by Annexin V-FITC/propidium iodide staining-based flow cytometry (reference value: 96.6%); type: functional; details: HepG2, 36 h, read-out: Activity
HepG2 [18] = experiment: Induction of apoptosis in human HepG2 cells assessed as early apoptotic cells at 5 uM after 36 hrs by Annexin V-FITC/propidium iodide staining-based flow cytometry (reference value: 2.08%); type: functional
HepG2 [19] = experiment: Induction of apoptosis in human HepG2 cells assessed as necrotic cells at 5 uM after 36 hrs by Annexin V-FITC/propidium iodide staining-based flow cytometry (reference value: 0.24%); type: functional
HepG2 [20] = experiment: Induction of apoptosis in human HepG2 cells assessed as late apoptotic cells at 2.5 uM after 48 hrs by Annexin V-FITC/propidium iodide staining-based flow cytometry (reference value: 0.95%); type: functional
HepG2 [21] = experiment: Induction of apoptosis in human HepG2 cells assessed as viable cells at 2.5 uM after 48 hrs by Annexin V-FITC/propidium iodide staining-based flow cytometry (reference value: 96.67%); type: functional; details: HepG2, 48 h, read-out: Activity
HepG2 [22] = experiment: Induction of apoptosis in human HepG2 cells assessed as early apoptotic cells at 7.5 uM after 48 hrs by Annexin V-FITC/propidium iodide staining-based flow cytometry (reference value: 1.30%); type: functional
HepG2 [23] = experiment: Induction of apoptosis in human HepG2 cells assessed as early apoptotic cells at 5 uM after 48 hrs by Annexin V-FITC/propidium iodide staining-based flow cytometry (reference value: 1.30%); type: functional
HepG2 [24] = experiment: Induction of apoptosis in human HepG2 cells assessed as late apoptotic cells at 5 uM after 48 hrs by Annexin V-FITC/propidium iodide staining-based flow cytometry (reference value: 0.95%); type: functional
HepG2 [25] = experiment: Induction of apoptosis in human HepG2 cells assessed as necrotic cells at 5 uM after 48 hrs by Annexin V-FITC/propidium iodide staining-based flow cytometry (reference value: 0.08%); type: functional
HepG2 [26] = experiment: Induction of apoptosis in human HepG2 cells assessed as viable cells at 5 uM after 48 hrs by Annexin V-FITC/propidium iodide staining-based flow cytometry (reference value: 96.67%); type: functional; details: HepG2, 48 h, read-out: Activity
HepG2 [27] = experiment: Induction of apoptosis in human HepG2 cells assessed as decrease in nuclear volume after 48 hrs by Hoechst 33342 staining-based assay; type: functional, cell-based
HepG2 [28] = experiment: Induction of apoptosis in human HepG2 cells assessed as decrease in Bcl2 protein expression after 48 hrs by immunofluorescence staining-based high content screening assay; type: functional, cell-based
HepG2 [29] = experiment: Induction of apoptosis in human HepG2 cells assessed as upregulation of active caspase 8 level after 48 hrs by immunofluorescence staining-based high content screening assay; type: functional, cell-based
HepG2 [30] = experiment: Induction of autophagy in human HepG2 cells assessed as formation of autolysosomes at 2.5 to 7.5 uM preincubated cells with 3-MA for 2 hrs followed by compound addition measured after 48 hrs by MDC staining-based assay; type: functional, cell-based
HepG2 [31] = experiment: Induction of autophagy in human HepG2 cells assessed as upregulation of beclin1 expression at 5 uM in presence of autophagy inhibitor 3-MA by Western blot analysis; type: functional, cell-based
[32] = Cytotoxicity against human QSG7701 cells up to 15 uM after 48 hrs by MTT assay; type: cell-based

With `COc1ccc2cc(-c3oc4c(CNCCCCN)cccc4c(=O)c3OC)ccc2c1Br.Cl.Cl` as the compound, how does the Activity (Mus musculus [1]) read?
The Activity was “Non-Toxic”.

And the Activity (HepG2 [2])?
Its Activity is “Dose-dependent effect”.

And the IC50 (HCT-116)?
Its IC50 is 15.1 µM.

And the IC50 (HT-29)?
The IC50 was 14.7 µM.

What about the IC50 (HeLa) of the same compound?
Its IC50 is 5.9 µM.

And the inhibition in vivo at 30 mg/kg (H22)?
Its inhibition in vivo at 30 mg/kg is 63.6%.

What about the MTD at 7 days [3] of the same compound?
The MTD at 7 days was 50 mg/kg.

And the Activity (Mus musculus [4])?
Its Activity is “Non-Toxic”.

And the Activity (Mus musculus [5])?
The Activity was “Non-Toxic”.

And the Activity (HepG2 [6])?
Its Activity is 2.06%.

And the Activity (HepG2 [7])?
Its Activity is 0.3%.

And the Activity (HepG2 [8])?
Its Activity is 3.38%.

What about the Activity (HepG2 [9]) of the same compound?
The Activity was 5.06%.

And the Activity (HepG2 [10])?
The Activity was 0.88%.

And the Activity (HepG2 [11])?
The Activity was 18.85%.

What about the viability at 7.5 µM (HepG2 [12]) of the same compound?
Its viability at 7.5 µM is 67.2%.

And the Activity (HepG2 [13])?
The Activity was 15.76%.

And the viability at 5 µM (HepG2 [14])?
The viability at 5 µM was 82.2%.

And the Activity (HepG2 [15])?
The Activity was 5.89%.

What about the Activity (HepG2 [16]) of the same compound?
The Activity was 0.26%.

And the viability at 7.5 µM (HepG2 [17])?
The viability at 7.5 µM was 64.7%.

And the Activity (HepG2 [18])?
Its Activity is 16.72%.

And the Activity (HepG2 [19])?
The Activity was 0.09%.

What about the Activity (HepG2 [20]) of the same compound?
Its Activity is 3.85%.

And the viability at 2.5 µM (HepG2 [21])?
Its viability at 2.5 µM is 74.1%.

What about the Activity (HepG2 [22]) of the same compound?
Its Activity is 23.02%.

What about the Activity (HepG2 [23]) of the same compound?
The Activity was 26.36%.

What about the Activity (HepG2 [24]) of the same compound?
Its Activity is 9.87%.

And the Activity (HepG2 [25])?
The Activity was 3.39%.

What about the viability at 5 µM (HepG2 [26]) of the same compound?
Its viability at 5 µM is 60.4%.

What about the Activity (HepG2 [27]) of the same compound?
The Activity was “Dose-dependent effect”.

And the Activity (HepG2 [28])?
The Activity was “Active”.

What about the Activity (HepG2 [29]) of the same compound?
Its Activity is “Dose-dependent effect”.

And the Activity (HepG2 [30])?
Its Activity is “inactive”.

And the Activity (HepG2 [31])?
Its Activity is “inactive”.

And the Activity [32]?
Its Activity is “Non-Toxic”.
